Usually MIC50 stands for the lowest concentration that inhibits either 50% of growth or 50% of the strains tested, depending on the study. Broadly, the MIC90 is the lowest concentration that inhibits either 90% of growth or 90% of the strains tested, depending on the study. The AUC(0-t) is the area under the concentration-time curve up to a stated or last time point. Low readings indicate less exposure, high ones more exposure.

Results on 23 compounds are retold here after patent US11498909B2, “Compound acting as antibiotics” (KBP BIOSCIENCES CO., LTD., priority 2018, dated 2022).

One data set deals with Pseudomonas aeruginosa. Nature of the data set: In vitro antibacterial activity, agar dilution MIC (Experiment 1). The class given is cell-based. As to the method:
Tested strains: all the clinically separated strains below were purchased from public facilities.
Escherichia coli ATCC25922, Pseudomonas aeruginosa ATCC27853, Klebsiella pneumoniae ATCC700603, and the like.
Tested Samples: Imipenem, Ceftazidime: Commercial Products, the Following Experiments were Carried Out According to the Content of an Effective Ingredient in Each Commercial Product;
The compounds of the present invention, their chemical names, and preparation methods are shown in the preparation example of each compound.
Experiment method: Agar dilution method, refer to National Committee for Clinical Laboratory Standards. 2006. Methods for Dilution Antimicrobial Susceptibility Tests for Bacteria That Grow Aerobically; Approved Standard—Seventh Edition M7-A7, Vol 26, No. 2, 2006, to determine the MIC of the compound. MIC represents the minimum inhibitory concentration.

Data set [1] can be described thus: Pharmacokinetics (PK) determination in SD rats (Experiment 4). Type of data set: in vivo. The following applies: plasma; for AUC(0-t) / AUC(0-inf): Sprague-Dawley (SD), rat, iv; for AUC(0-inf): read-out: AUCINF_obs. How it is done: The compound of the present invention, self-prepared and dissolved in a suitable solvent.
Instrument and equipment: API4000 LC-MS/MS
Chromatographic column: Waters XBridge C18(2.1×50 mm, […])
Rat blood collection: Animals were fixed. The animal's tail was heated with a water bathtub 10 minutes before each time point. About 200 μL of the blood was collected through the caudal vein. After the blood collection, the blood was placed in an anticoagulation tube containing heparin sodium. The blood samples were centrifuged at 8000 rpm for 6 minutes at 4° C. to obtain plasma samples. The plasma must be prepared within 30 minutes after the blood collection. The plasma was stored in a refrigerator at −80° C. before the test.
(1) Test samples were removed from the refrigerator (−80° C.), naturally thawed at room temperature, and then vortexed for 5 minutes;
(2) 20 μL sample was precisely pipetted to a 1.5 mL centrifuge tube;
(3) 200 μL of the internal standard solution was added;
(4) The mixture was vortexed for 5 minutes and centrifuged for 5 minutes (12000 revolutions per minute);
(5) 100 μL of the supernate was precisely pipetted, 100 μL of water was added, the mixture was vortexed for 5 minutes, and the sample was sent to LC-MS/MS for analysis.
The results of the concentrations of the test samples (plasma samples) were output with Analyst 1.6.1 of AB Corporation. The meaning value, the standard deviation, the coefficient of variation, and other parameters (not necessary to calculate the parameter that can be directly output from Analyst 1.6.1) were calculated with Microsoft Excel, and the PK parameter is calculated with Pharsight Phoenix 6.1 software.

[2] abbreviates: agar dilution (Table 3), read-out: MIC50.
Setting [3] is: agar dilution (Table 3), read-out: MIC90.

Values after ≈ are worked out from the molar mass of the structure shown. Read-outs that look alike come from different tables or passages of the source. Bounds are passed on as bounds.

Regarding `CC(O)C(NC(=O)c1ccc(/C=C/C=C/c2ccco2)cc1)C(=O)NO` (racemic) [Compound 25], in the data set with Pseudomonas aeruginosa (setting [2]), the MIC50 was determined as 1 µg/mL (≈ 2.81 µM). In the data set with Pseudomonas aeruginosa (setting [3]), the MIC90 was greater than 16 µg/mL.
On to `CC(C)(O/N=C(\C(=O)N[C@@H]1C(=O)N2C(C(=O)[O-])=C(C[n+]3ccccc3)CS[C@H]12)c1csc(N)n1)C(=O)O` [Ceftazidime, reference compound], for which the MIC50 in the data set with Pseudomonas aeruginosa (setting [2]) stood at 2 µg/mL (≈ 3.66 µM). Further, the MIC90 in the data set on Pseudomonas aeruginosa (setting [3]) is greater than 16 µg/mL.
As for `C[C@@H](O)[C@H](NC(=O)c1ccc(/C=C/C=C/c2ccco2)cc1)C(=O)NO` [Compound 1, 4-((1E,3E)-4-(furan-2-yl)buta-1,3-dienyl)-N-((2S,3R)-3-hydroxy-1-(hydroxyamino)-1-oxobutan-2-yl)benzamide], in the data set on Pseudomonas aeruginosa (setting [2]), the MIC50 was 1 µg/mL (≈ 2.81 µM). Also, the MIC90 in the data set with Pseudomonas aeruginosa (setting [3]) was greater than 16 µg/mL.
In the same order, the values of `C[C@@H](O)[C@H](NC(=O)c1ccc(/C=C/C=C/c2ccc(CO)o2)cc1)C(=O)NO` [Compound 3, N-((2S,3R)-3-hydroxy-1-(hydroxamino)-1-oxobutan-2-yl)-4-((1E,3E)-4-(5-(hydroxymethyl)furan-2-yl)buta-1,3-dienyl)benzamide] are 2 µg/mL (≈ 5.18 µM) and 16 µg/mL (≈ 41.4 µM).
In the data set on Pseudomonas aeruginosa (agar dilution (Table 3)), `C[C@H](O)[C@H](NC(=O)c1ccc(C#CC#Cc2ccc(CO)o2)cc1)C(=O)NO` [Compound 10, N-((2S,3S)-3-hydroxy-1-(hydroxyamino)-1-oxobutan-2-yl)-4-((5-(hydroxymethyl)furan-2-yl)buta-1,3-diynyl)benzamide] gave an MIC50 of 0.125 µg/mL (≈ 0.327 µM) and an MIC90 of 1 µg/mL (≈ 2.62 µM). In data set [1] (IV 2 mg/kg, 2 mg/kg), this compound showed an AUCINF_obs of 4902 ± 532 ng·h/mL, an AUClast of 4891 ± 533 ng·h/mL, a Cl_obs of 1.03 ± 0.11 L/h/kg and a Vz_obs of 1.03 ± 0.11 L/kg. In data set [1] (IV 2 mg/kg, 2 mg/kg), this compound gave a t1/2z of 44.4 ± 9.6 min and a λ_z of 0.97 ± 0.23 h⁻¹.
Turning to `C[C@@H](O)[C@H](NC(=O)c1ccc(C#CC#Cc2ccc(CNCCCN)o2)cc1)C(=O)NO` [Compound 12, 4-((5-((3-aminopropylamino)methyl)furan-2-yl)buta-1,3-diynyl)-N-((2S,3R)-3-hydroxy-1-(hydroxyamino)-1-oxobutan-2-yl)benzamide], in the data set on Pseudomonas aeruginosa (setting [2]), the MIC50 worked out at 2 µg/mL (≈ 4.56 µM). The MIC90 in the data set with Pseudomonas aeruginosa (setting [3]) came to 4 µg/mL (≈ 9.12 µM).
For `C[C@@H](O)[C@H](NC(=O)c1ccc(C#CC#Cc2ccc(CN3CCN(C)CC3)o2)cc1)C(=O)NO` [Compound 13, N-((2S,3R)-3-hydroxy-1-(hydroxyamino)-1-oxobutan-2-yl)-4-((5-((4-methylpiperazin-1-yl)methyl)furan-2-yl)buta-1,3-diynyl)benzamide], in the data set with Pseudomonas aeruginosa (setting [2]), the MIC50 was determined as 2 µg/mL (≈ 4.31 µM). The MIC90 in the data set on Pseudomonas aeruginosa (setting [3]) was 8 µg/mL (≈ 17.2 µM). In addition, in data set [1] (IV 2 mg/kg), the Cl_obs came to 4.14 ± 0.70 L/h/kg, the Vz_obs worked out at 2.09 ± 0.39 L/kg, the t1/2z came out at 21 ± 0.6 min and the λ_z came to 1.98 ± 0.04 h⁻¹. In data set [1] (2 mg/kg), the AUC(0-t) stood at 485 ± 87.4 ng·h/mL and the AUC(0-inf) was determined as 493 ± 87.9 ng·h/mL.
For the compound `C[C@@H](O)[C@H](NC(=O)c1ccc(C#CC#Cc2oc(CO)cc2-c2ccccc2)cc1)C(=O)NO` [Compound 17, N-((2S,3R)-3-hydroxy-1-(hydroxyamino)-1-oxobutan-2-yl)-4-((5-(hydroxymethyl)-3-phenylfuran-2-yl)buta-1,3-diynyl)benzamide], in the data set on Pseudomonas aeruginosa (setting [2]), the MIC50 amounted to 8 µg/mL (≈ 17.4 µM). Moreover, the MIC90 with Pseudomonas aeruginosa (setting [3]) was greater than 16 µg/mL.
In the same order, the values of `C[C@@H](O)[C@H](NC(=O)c1ccc(C#CC#Cc2ccc(CN3CCNCC3)o2)cc1)C(=O)NO` [Compound 24, N-((2S,3R)-3-hydroxy-1-(hydroxyamino)-1-oxobutan-2-yl)-4-((5-(piperazin-1-ylmethyl)furan-2-yl)buta-1,3-diynyl)benzamide] are 4 µg/mL (≈ 8.88 µM) and greater than 16 µg/mL.
As for `C[C@@H](O)[C@H](NC(=O)c1ccc(C(=O)N/N=C/c2ccco2)cc1)C(=O)NO` [Compound 26, 4-(2-(furan-2-methylene)hydrazinecarbonyl)-N-((2S,3R)-3-hydroxy-1-(hydroxyamino)-1-oxobutan-2-yl)-benzamide], the MIC90 in the data set with Pseudomonas aeruginosa (setting [3]) worked out at 4 µg/mL (≈ 10.7 µM).
On the same count and under the same terms, for `C[C@@H](O)[C@H](NC(=O)c1ccc(C#CC#Cc2ccc(C(N)=O)o2)cc1)C(=O)NO` [Compound 27] the value was 4 µg/mL (≈ 10.1 µM).
For the compound `C[C@@H](O)[C@H](NC(=O)c1ccc(C#CC#Cc2ccc(C(=O)N(C)C)o2)cc1)C(=O)NO` [Compound 29], the MIC50 with Pseudomonas aeruginosa (setting [2]) turned out to be 1 µg/mL (≈ 2.36 µM). In addition, in the data set with Pseudomonas aeruginosa (setting [3]), the MIC90 was 4 µg/mL (≈ 9.45 µM).
Consider `C[C@@H](O)[C@H](NC(=O)c1ccc(/C=C/C=C/c2ccc(CO)o2)nc1)C(=O)NO` [Compound 32], for which, in data set [1] (IV 2 mg/kg), the Cl_obs was found to be 5.80 ± 0.53 L/h/kg, the Vz_obs is 4.24 ± 1.65 L/kg, the t1/2z is 30.4 ± 10.8 min and the λ_z amounted to 1.48 ± 0.46 h⁻¹. In data set [1] (2 mg/kg), the exposure AUC(0-t) is 344 ± 33.7 ng·h/mL and the AUC(0-inf) worked out at 347 ± 32.7 ng·h/mL.
Turning to `C[C@@H](O)[C@H](NC(=O)c1ccc(C#CC#Cc2ccnn2C)cc1)C(=O)NO` [Compound 34, N-((2S,3R)-3-hydroxy-1-(hydroxamino)-1-oxobutan-2-yl)-4-((1-methyl-1H-pyrazol-5-yl)buta-1,3-diynyl)benzamide], the MIC50 with Pseudomonas aeruginosa (setting [2]) was 4 µg/mL (≈ 10.9 µM). Also, in the data set on Pseudomonas aeruginosa (setting [3]), the MIC90 was greater than 16 µg/mL.
For `Cn1nccc1-c1ccc(C#Cc2ccc(C(=O)N[C@H](C(=O)NO)C(C)(C)N)cc2)cc1` [Compound 35, (S)—N-(3-amino-1-(hydroxyamino)-3-methyl-1-oxobutan-2-yl)-4-((4-(1-methyl-1H-pyrazol-5-yl)phenyl)ethynyl)benzamide], in the data set on Pseudomonas aeruginosa, the MIC50 worked out at 2 µg/mL (≈ 4.64 µM) and the MIC90 was 16 µg/mL (≈ 37.1 µM).
For the compound `C[C@@H](O)[C@H](NC(=O)c1ccc(C#Cc2ccc(-c3ccnn3C)cc2)cc1)C(=O)NO` [Compound 36, N-((2S,3R)-3-hydroxy-1-(hydroxyamino)-1-oxobutan-2-yl)-4-((4-(1-methyl-1H-pyrazol-5-yl)phenyl)ethynyl)benzamide], the MIC50 in the data set on Pseudomonas aeruginosa (setting [2]) was found to be 2 µg/mL (≈ 4.78 µM). Also, the MIC90 with Pseudomonas aeruginosa (setting [3]) is greater than 16 µg/mL.
In data set [1] (IV 2 mg/kg), `Cn1nccc1-c1ccc(C#Cc2ccc(-c3ccn(CCC(C)(C(=O)NO)S(C)(=O)=O)c(=O)c3)cc2)cc1` (centres unmarked) [Compound 38, N-hydroxy-2-methyl-4-(4-(4-((4-(1-methyl-1H-pyrazol-5-yl)phenyl)ethynyl)phenyl)-2-oxopyridin-1(2H)-yl)-2-(methylsulfonyl)butanamide] yielded a Cl_obs of 1.01 ± 0.09 L/h/kg, a Vz_obs of 1.81 ± 0.17 L/kg, a t1/2z of 75 ± 5.4 min and a λ_z of 0.56 ± 0.04 h⁻¹. Moreover, in data set [1] (2 mg/kg), the AUC(0-t) stood at 1940 ± 168 ng·h/mL and the AUC(0-inf) was determined as 1990 ± 176 ng·h/mL.
For `C[C@@H](O)[C@H](NC(=O)c1ccc(C#Cc2ccc(-c3ccnn3C)nc2)cc1)C(=O)NO` [Compound 40, N-((2S,3R)-3-hydroxy-1-(hydroxyamino)-1-oxobutan-2-yl)-4-((6-(1-methyl-1H-pyrazol-5-yl)pyridin-3-yl)ethynyl)benzamide], the MIC50 with Pseudomonas aeruginosa (setting [2]) stood at 2 µg/mL (≈ 4.77 µM). Moreover, in the data set on Pseudomonas aeruginosa (setting [3]), the MIC90 amounted to 1 µg/mL (≈ 2.38 µM).
For the compound `CC(CCn1ccc(-c2ccc(C#Cc3ccc(CN4CCOCC4)o3)cc2)cc1=O)(C(=O)NO)S(C)(=O)=O` (centres unmarked) [Compound 45, N-hydroxy-2-methyl-2-(methylsulfonyl)-4-(4-(4-((5-(morpholinomethyl)furan-2-yl)ethynyl)phenyl)-2-oxopyridin-1(2H)-yl)butanamide], the MIC50 in the data set on Pseudomonas aeruginosa (setting [2]) was determined as 4 µg/mL (≈ 7.22 µM).
Take `C[C@@](CCn1ccc(-c2ccc(C#Cc3ccc(CO)o3)cc2)cc1=O)(C(=O)NO)S(C)(=O)=O` [Compound 46]: the MIC50 in the data set on Pseudomonas aeruginosa (setting [2]) was determined as 1 µg/mL (≈ 2.06 µM). For the same compound, in the data set on Pseudomonas aeruginosa (setting [3]), the MIC90 was determined as 8 µg/mL (≈ 16.5 µM).
In the same order, the values of `CC(CCn1ccc(-c2ccc(C#CC#Cc3ccc(CO)o3)cc2)cc1=O)(C(=O)NO)S(C)(=O)=O` (centres unmarked) [Compound 47] are 4 µg/mL (≈ 7.87 µM) and greater than 16 µg/mL.
Consider `COCc1ccc(C#Cc2ccc(-c3ccn(CCC(C)(C(=O)NO)S(C)(=O)=O)c(=O)c3)cc2)o1` (centres unmarked) [Compound 48], for which the MIC50 in the data set on Pseudomonas aeruginosa (setting [2]) stood at 2 µg/mL (≈ 4.01 µM).
Regarding “N-((2S,3R)-3-hydroxy-1-(hydroxyamino)-1-oxobutan-2-yl)-4-((5-((2-(2-hydroxyethoxy)ethylamino)methyl)furan-2-yl)buta-1,3-diynyl)benzamide [Compound 19]”, in the data set with Pseudomonas aeruginosa (agar dilution (Table 3)), the MIC50 was 2 µg/mL and the MIC90 amounted to 8 µg/mL.
